Results taken from PubChem BioAssay AID248 (DTP/NCI, 2004).
Several values for one entry are separate records, joined by “and”; a condition that tells them apart may be missing. Equal entries are not always repeated. Inconclusive results and toxic doses are left out. Cut-off read from the data, not from the text of the source: active = T/C of 150% or more; inactive = T/C below 125%.

System: L1210 leukemia ip in BDF1 mice, survival T/C
Assay: NCI In Vivo Anticancer Drug Screen. Data for tumor model L1210 Leukemia (intraperitoneal) in B6D2F1 (BDF1) mice
Details: endpoint: mean survival time, higher = longer survival
Outline: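 In this screen, tumor-bearing mice given compound are compared to those given vehicle, and their survival values are reported as a treated-to-control quotient.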

[1] = dose: 100.0 mg/kg/injection, schedule: Q04DX002 (ip), vehicle: saline
[2] = dose: 200.0 mg/kg/injection, schedule: Q04DX002 (ip), vehicle: saline
[3] = dose: 400.0 mg/kg/injection, schedule: Q04DX002 (ip), vehicle: saline
[4] = dose: 100.0 mg/kg/injection, schedule: Q04DX003 (ip), vehicle: Klucel (hydroxypropylcellulose) (HPC)
[5] = dose: 200.0 mg/kg/injection, schedule: Q04DX003 (ip), vehicle: Klucel (hydroxypropylcellulose) (HPC)
[6] = dose: 100.0 mg/kg/injection, schedule: Q04DX002 (ip), vehicle: Klucel (hydroxypropylcellulose) (HPC)
[7] = dose: 200.0 mg/kg/injection, schedule: Q04DX002 (ip), vehicle: Klucel (hydroxypropylcellulose) (HPC)
[8] = dose: 400.0 mg/kg/injection, schedule: Q04DX002 (ip), vehicle: Klucel (hydroxypropylcellulose) (HPC)
[9] = dose: 400.0 mg/kg/injection, schedule: Q04DX003 (ip), vehicle: Klucel (hydroxypropylcellulose) (HPC)
[10] = dose: 100.0 mg/kg/injection, schedule: Q01DX009 (ip), vehicle: Klucel (hydroxypropylcellulose) (HPC)
[11] = dose: 200.0 mg/kg/injection, schedule: Q01DX009 (ip), vehicle: Klucel (hydroxypropylcellulose) (HPC)

Measured: T/C

CN(C)S(=O)(=O)c1ccc(NC(=O)CI)cc1
inactive: dose: 12.0 mg/kg/injection, schedule: Q01DX001 (ip), vehicle: other 95 % of control | dose: 12.5 mg/kg/injection, schedule: Q01DX009 (ip), vehicle: saline with Tween-80 95 % of control | dose: 12.5 mg/kg/injection, schedule: Q04DX003 (ip), vehicle: other 95 % of control | dose: 25.0 mg/kg/injection, schedule: Q01DX001 (ip), vehicle: other 105 % of control | dose: 25.0 mg/kg/injection, schedule: Q01DX009 (ip), vehicle: saline with Tween-80 106 % of control | dose: 25.0 mg/kg/injection, schedule: Q04DX003 (ip), vehicle: other 101 % of control | dose: 50.0 mg/kg/injection, schedule: Q01DX001 (ip), vehicle: other 100 % of control | dose: 50.0 mg/kg/injection, schedule: Q04DX003 (ip), vehicle: other 96 % of control

CN(C)C(=O)CCC(=O)O
inactive: [1] 103 % of control | [2] 97 % of control | [3] 97 % of control

C=CN1C(=O)NC(C)(CC(C)C)C1=O (configuration not stated)
inactive: dose: 100.0 mg/kg/injection, schedule: Q01DX009 (ip), vehicle: saline with Tween-80 104 % of control | dose: 200.0 mg/kg/injection, schedule: Q01DX009 (ip), vehicle: saline with Tween-80 91 % of control | dose: 400.0 mg/kg/injection, schedule: Q01DX009 (ip), vehicle: saline with Tween-80 92 % of control

C[n+]1cccc2c3ccccc3c(-c3ccccc3)cc21
inactive: dose: 0.78 mg/kg/injection, schedule: Q01DX009 (ip), vehicle: water 86 % of control | dose: 1.56 mg/kg/injection, schedule: Q01DX009 (ip), vehicle: water 102 % of control | dose: 3.12 mg/kg/injection, schedule: Q01DX009 (ip), vehicle: water 87 % of control | dose: 6.25 mg/kg/injection, schedule: Q01DX009 (ip), vehicle: water 112 % of control and 92 % of control | dose: 12.5 mg/kg/injection, schedule: Q04DX003 (ip), vehicle: water 104 % of control | dose: 25.0 mg/kg/injection, schedule: Q04DX003 (ip), vehicle: water 104 % of control

Cc1ccc(S(=O)(=O)Oc2c(Cl)c(Cl)c(Cl)c(Cl)c2Cl)cc1
inactive: dose: 100.0 mg/kg/injection, schedule: Q01DX001 (ip), vehicle: other 94 % of control | dose: 100.0 mg/kg/injection, schedule: Q01DX009 (ip), vehicle: other 92 % of control | dose: 100.0 mg/kg/injection, schedule: Q04DX003 (ip), vehicle: other 92 % of control | dose: 200.0 mg/kg/injection, schedule: Q01DX001 (ip), vehicle: other 102 % of control | dose: 200.0 mg/kg/injection, schedule: Q01DX009 (ip), vehicle: other 86 % of control | dose: 200.0 mg/kg/injection, schedule: Q04DX003 (ip), vehicle: other 93 % of control | dose: 400.0 mg/kg/injection, schedule: Q01DX001 (ip), vehicle: other 88 % of control | dose: 400.0 mg/kg/injection, schedule: Q04DX003 (ip), vehicle: other 90 % of control

O=C(NCCCl)Nc1ccc(Br)cc1
inactive: dose: 100.0 mg/kg/injection, schedule: Q01DX001 (ip), vehicle: carboxymethylcellulose (CMC) 101 % of control | dose: 200.0 mg/kg/injection, schedule: Q01DX001 (ip), vehicle: carboxymethylcellulose (CMC) 98 % of control | dose: 400.0 mg/kg/injection, schedule: Q01DX001 (ip), vehicle: carboxymethylcellulose (CMC) 115 % of control

CC(C)NS(=O)(=O)c1ccc(Cl)cc1
inactive: [4] 100 % of control | [5] 102 % of control

O=[N+]([O-])c1ccc(OCc2ccccc2)cc1
inactive: dose: 100.0 mg/kg/injection, schedule: Q04DX003 (ip), vehicle: saline with Tween-80 96 % of control | dose: 200.0 mg/kg/injection, schedule: Q04DX003 (ip), vehicle: saline with Tween-80 92 % of control | dose: 400.0 mg/kg/injection, schedule: Q04DX003 (ip), vehicle: saline with Tween-80 94 % of control

COc1ccc(CN2CCCN(Cc3ccc(OC)cc3)C2c2c(O)ccc3ccccc23)cc1
inactive: dose: 5.0 mg/kg/injection, schedule: Q01DX001 (ip), vehicle: acetone 100 % of control | dose: 10.0 mg/kg/injection, schedule: Q01DX001 (ip), vehicle: acetone 95 % of control | dose: 20.0 mg/kg/injection, schedule: Q01DX001 (ip), vehicle: acetone 92 % of control | dose: 40.0 mg/kg/injection, schedule: Q01DX001 (ip), vehicle: acetone 88 % of control

CCCCCCCCCCCCCCCCC(C(=O)OC)S(=O)(=O)O (configuration not stated)
inactive: [1] 102 % of control | [2] 124 % of control | [3] 102 % of control

O=C(CCc1ccc(O)cc1)c1ccccc1
inactive: [6] 97 % of control | [7] 87 % of control | [8] 94 % of control

O=C(O)c1ccc2c(c1Nc1ccc(-c3ccc(Nc4c(C(=O)O)ccc5c4C(=O)c4ccccc4C5=O)cc3)cc1)C(=O)c1ccccc1C2=O
inactive: [4] 93 % of control | [5] 97 % of control | [9] 101 % of control

O=C(Nc1ccccn1)Nc1cc(C(F)(F)F)ccc1Cl
inactive: dose: 100.0 mg/kg/injection, schedule: Q01DX001 (ip), vehicle: Klucel (hydroxypropylcellulose) (HPC) 98 % of control | [10] 95 % of control and 90 % of control | [6] 95 % of control and 103 % of control | [4] 108 % of control | dose: 200.0 mg/kg/injection, schedule: Q01DX001 (ip), vehicle: Klucel (hydroxypropylcellulose) (HPC) 91 % of control | [11] 92 % of control | [7] 98 % of control and 103 % of control | [5] 97 % of control | dose: 400.0 mg/kg/injection, schedule: Q01DX001 (ip), vehicle: Klucel (hydroxypropylcellulose) (HPC) 98 % of control | dose: 400.0 mg/kg/injection, schedule: Q01DX009 (ip), vehicle: Klucel (hydroxypropylcellulose) (HPC) 95 % of control | [8] 93 % of control and 97 % of control | [9] 96 % of control

NC1CCC(CC2CC3CCC2C3)CC1 (configuration not stated)
inactive: dose: 12.5 mg/kg/injection, schedule: Q01DX009 (ip), vehicle: saline 98 % of control | dose: 25.0 mg/kg/injection, schedule: Q01DX009 (ip), vehicle: saline 91 % of control | dose: 25.0 mg/kg/injection, schedule: Q04DX003 (ip), vehicle: saline 100 % of control | dose: 50.0 mg/kg/injection, schedule: Q01DX009 (ip), vehicle: saline 100 % of control | dose: 50.0 mg/kg/injection, schedule: Q04DX003 (ip), vehicle: saline 96 % of control | dose: 100.0 mg/kg/injection, schedule: Q01DX009 (ip), vehicle: saline 90 % of control | dose: 100.0 mg/kg/injection, schedule: Q04DX003 (ip), vehicle: saline 96 % of control

Nc1nc(Cl)nc(C(Cl)(Cl)Cl)c1Cl (tested in a mixture with another compound)
inactive: dose: 50.0 mg/kg/injection, schedule: Q01DX009 (ip), vehicle: Klucel (hydroxypropylcellulose) (HPC) 94 % of control | [10] 87 % of control | [11] 97 % of control

O=[N+]([O-])c1ccc(N=Nc2c3ccccc3c(O)n2CO)c([N+](=O)[O-])c1
inactive: dose: 100.0 mg/kg/injection, schedule: Q01DX001 (ip), vehicle: saline 97 % of control | dose: 200.0 mg/kg/injection, schedule: Q01DX001 (ip), vehicle: saline 97 % of control | dose: 400.0 mg/kg/injection, schedule: Q01DX001 (ip), vehicle: saline 98 % of control

O=C1C=C(N2CC2)C(=O)C=C1N1CC1
inactive: dose: 0.62 mg/kg/injection, schedule: Q01DX001 (ip), vehicle: other 105 % of control | dose: 1.25 mg/kg/injection, schedule: Q01DX001 (ip), vehicle: other 117 % of control | dose: 2.5 mg/kg/injection, schedule: Q01DX001 (ip), vehicle: other 107 % of control
